Patent publication US5935861A, “Diazonium ion assay reagents and methods for their use” (priority 1997, dated 1999)

Type: physicochemical
Excerpt: . An exemplary synthesis is the synthesis of 2-methyl-3-nitroaniline diazonium ion (2). In this embodiment, 2-methyl-3-nitroaniline (1) is converted to the diazonium ion (2) by reaction with sodium nitrite in an acidic aqueous medium. The reaction is illustrated in Scheme I below. The 2-methyl-3-nitroaniline diazonium ion (2) is capable of reacting with bilirubin to form a detectable product, and is thus useful in assays for detecting and quantitating bilirubin in a sample. […]

## Cc1c(N)cccc1[N+](=O)[O-] [2-methyl-3-nitroaniline]
  solubility in water or other aqueous systems (in words): good solubility in aqueous systems
